Drawing on patent publication US6313177A, “D-mannitol derivatives as HIV aspartyl protease inhibitors” (Pharmacor Inc., priority 1999, dated 2001), this text covers Ki and CC50 for 16 molecules.

One data set deals with T1, recombinant HIV-1 protease (Human immunodeficiency virus type 1 group M subtype B, UniProt P04585).
T1 construct: recombinant HIV-1 protease; purchased Bachem Bioscience
In words: Fluorometric (FRET) enzymatic assay for the inhibition constant (Ki) against the HIV protease. In kind it is biochemical.
Details: not given
The text has this:
Enzymatic Assay for Determining the Inhibition Constant (Ki) of Synthetic Compounds Prepared Against the HIV Protease
This is a fluorometric assay based on the cleavage by protease of a substrate carrying a donor group (EDANS, excitation at 340 nm and emission at 490 nm) and an acceptor group (DABCYL) on each side of the cleavage site, interacting together through fluorescence resonance energy transfer (FRET). Cleavage of the substrate by protease stops energy exchange between the two groups, resulting in a time-dependent increase in fluorescence intensity that is linearly related to the extent of substrate hydrolysis.
The enzymatic assay is done at 30° C. in a spectrophotometer microcuvet, in a total volume of 400 μL. The apparatus used for readings is a UV-visible Cary 1 spectrophotometer made by Varian. The reaction is run first in the absence of protease inhibitors for 2 min, using 355 μL of buffer at pH 4.7 (sodium acetate 100 mM, NaCl 1 M, EDTA 1 mM, DTT 1 mM, dimethylsulfoxide 10%, and BSA 1 mg/mL), 40 μL of substrate H-2930 from Molecular Probes (final concentration 10 μM) and 5 μL of recombinant HIV-1 protease (final concentration 18.3 nM) purchased from Bachem Bioscience. Fluorescence readings at […] are taken continuously during the reaction, allowing determination of the enzyme's initial velocity (v0). At the end of the 2 min incubation, the potential inhibitor at a defined concentration in a volume of 2 μL is added to the reaction, and fluorescence readings are taken for another 2 min, allowing determination of enzyme velocity (vi) in the presence of the inhibitory compound. Several concentrations of the putative inhibitors are tested in the assay. After calculation of vo and vi, the inhibition constant (Ki) of the compound is determined using the equation of Henderson: [formula]
and [I]=inhibitor concentration, [S ]=substrate concentration, Km=Michaelis-Menten constant, Kiapp =apparent Ki
Note that the Michaelis-Menten constant of HIV protease is determined by running the assay without inhibitors, using several concentrations of substrate, and plotting the results as a Cornish-Bowden graph with the ratio substrate concentration/velocity as the ordinate and substrate concentration as the abscissa.
For the molecule `O[C@@H]([C@H](O)[C@@H](COCc1ccccc1)OCc1ccccc1)[C@@H](COCc1ccccc1)OCc1ccccc1` [Compound 1, 1,2,5,6-tetra-O-benzyl-D-mannitol], the inhibitory constant (Ki) amounted to 2 µM.

The data set is the same for the next values; noted with them: Table 1, benzylated D-mannitol derivatives; pH 4.7, 30° C., substrate 10 μM, protease 18.3 nM.
`CC(C)COC(=O)c1ccc(COC[C@@H](OCc2ccccc2)[C@@H](O)[C@H](O)[C@@H](COCc2ccc(C(=O)OCC(C)C)cc2)OCc2ccccc2)cc1` [Compound 30, 1,6-di-O-(4-carboisobutoxybenzyl)-2,5-di-O-benzyl D-mannitol]: the Ki is > 3 µM.

Take `COC(=O)c1ccc(CO[C@H](COCc2ccccc2)[C@@H](O)[C@H](O)[C@@H](COCc2ccccc2)OCc2ccc(C(=O)OC)cc2)cc1` [Compound 19, 1,6-di-O-benzyl-2,5-di-O-(4-carbomethoxybenzyl)-D-mannitol]: the Ki is 8.4 µM.

For the molecule `N#Cc1ccc(CO[C@H](COCc2ccccc2)[C@@H](O)[C@H](O)[C@@H](COCc2ccccc2)OCc2ccc(C(N)=O)cc2)cc1` [Compound 60, 1,6-di-O-benzyl-2-O-(4-cyanobenzyl)-5-O-(4-carboxamidobenzyl)-D-mannitol], the Ki came out at 13 µM.

For `O=Cc1ccc(CO[C@H](COCc2ccccc2)[C@@H](O)[C@H](O)[C@@H](COCc2ccccc2)OCc2ccc(C=O)cc2)cc1` [Compound 49, 1,6-di-O-benzyl-2,5-di-O-(4-formylbenzyl)-D-mannitol], the Ki worked out at 28 µM.

On to `Oc1ccc(CO[C@H](COCc2ccccc2F)[C@@H](O)[C@H](O)[C@@H](COCc2ccccc2F)OCc2ccc(O)cc2)cc1` [Compound 5, 1,6-di-(2-fluorobenzyl)-2,5-di-(4-hydroxybenzyl)-D-mannitol], for which the inhibition constant (Ki) turned out to be 2.7 µM.

In the case of `O[C@@H]([C@H](O)[C@@H](COCc1ccccc1)OCc1ccc(OCc2ccccc2)cc1)[C@@H](COCc1ccccc1)OCc1ccc(OCc2ccccc2)cc1` [Compound 6, 1,6-di-O-benzyl-2,5-di-O-(4-benzyloxybenzyl)-D-mannitol], the Ki is < 1 µM.

With `O[C@@H]([C@H](O)[C@@H](COCc1ccc(C(F)(F)F)cc1)OCc1ccc(C(F)(F)F)cc1)[C@@H](COCc1ccc(C(F)(F)F)cc1)OCc1ccc(C(F)(F)F)cc1` [Compound 11, 1,2,5,6-tetra-O-(4-trifluoromethylbenzyl)-D-mannitol], the Ki is > 5 µM.

Turning to `N#Cc1ccc(COC[C@@H](OCc2ccccc2)[C@@H](O)[C@H](O)[C@@H](COCc2ccc(C#N)cc2)OCc2ccccc2)cc1` [Compound 28, 1,6-di-O-(4-cyanobenzyl)-2,5-di-O-benzyl-D-mannitol], the Ki stood at 4.3 µM.

The same data set, now with this note: Table 2, tetra-substituted D-mannitol derivatives; pH 4.7, 30° C., substrate 10 μM, protease 18.3 nM.
As for `O[C@@H]([C@H](O)[C@@H](COCC=Cc1ccccc1)OCc1ccccc1)[C@@H](COCC=Cc1ccccc1)OCc1ccccc1` [Compound 94, 1,6-di-O-cinnamyl-2,5-di-O-benzyl-D-mannitol], the Ki is > 1 µM.

As to `C=CCOC[C@@H](OCC=C)[C@@H](O)[C@H](O)[C@@H](COCC=C)OCC=C` [Compound 78, 1,2,5,6-tetra-O-allyl-D-mannitol], the Ki turned out to be 190 µM.

For `O[C@@H]([C@H](O)[C@@H](COCc1cccs1)OCc1ccc(F)cc1)[C@@H](COCc1cccs1)OCc1ccc(F)cc1` [Compound 93, 1,6-di-O-(2-thienylmethyl)-2,5-di-O-(4-fluorophenylmethyl)-D-mannitol], the inhibition constant Ki is 0.4 µM.

Regarding `C=CCO[C@H](COCc1ccccc1)[C@@H](O)[C@H](O)[C@@H](COCc1ccccc1)OCC=C` [Compound 82, 1,6-di-O-benzyl-2,5-di-O-allyl-D-mannitol], the Ki is 11 µM.

Staying with this data set, now noted: Table 3, di- and tri-substituted D-mannitol derivatives; pH 4.7, 30° C., substrate 10 μM, protease 18.3 nM.
On to `O[C@@H]([C@H](O)[C@@H](COCc1ccccc1)OCc1ccccc1)[C@H](O)COCc1ccccc1` [Compound 98, 1,2,6-tri-O-benzyl-D-mannitol], for which the Ki was found to be 33 µM.

For the molecule `O=C(O[C@H](COCc1ccccc1)[C@@H](O)[C@H](O)[C@@H](COCc1ccccc1)OC(=O)c1ccccc1)c1ccccc1` [Compound 109, 1,6-di-O-benzyl-2,5-di-O-benzoyl-D-mannitol], the Ki turned out to be 10 µM.

Take `CSC(=S)O[C@H](COCc1ccccc1)[C@@H](O)[C@H](O)[C@@H](COCc1ccccc1)OC(=S)SC` [Compound 101, 1,6-di-O-benzyl-2,5-di-O-(methylthiothioxo)-D-mannitol]: the inhibition constant Ki is > 5 µM.

Tested on in the next data set: not listed separately
In words: Cytotoxicity (MTT assay / trypan blue exclusion test). The conditions noted are these: 7 or 10 days, 37° C., measure (IC50/CC50) not stated. In kind it is cell-based. The procedure: Two assays were performed to evaluate the potentiel toxicity of the compounds in infected cells:
1) Briefly, cells were grown in 96-well microtiter plates at 37° C. in complete culture medium in the presence of the compound to test. Control cells grown in the absence of the compound received the same amount of solvent used to dissolve the inhibitor (in this case, dimethylsulfoxide at a final concentration of 0.1 to 0.3%). After 7 or 10 days, MTT was added to the cultures for 4 hours at 37° C. as described in the literature (Schwartz et al., AIDS Res. Hum. Retrov. 4: 441-448, 1988; Mosmaun, J. Immunol. Meth., 65: 55-63, 1983) and the changes in absorbance associated with metabolism of MTT by viable cells was monitored with an ELISA microplate reader at a test wavelength of 540 nm.
2) The cells were grown as described above in 24-well microplates or 25-cm tissue culture flasks in the presence or absence of the tested compounds, and the cell viability after 7 or 10 days was determined by the trypan blue exclusion test, using a hemacytometer and a microscope at 100× magnification.
For the molecule `O[C@@H]([C@H](O)[C@@H](COCc1ccccc1)OCc1ccccc1)[C@@H](COCc1ccccc1)OCc1ccccc1` [Compound 1, 1,2,5,6-tetra-O-benzyl-D-mannitol], half-maximal cytotoxicity (CC50) was put at 15 µM.
